Measured values from patent US8163776B2, “Method of immunomodulation using thione-forming disulfides” (Grassetti family Trust, priority 2001, dated 2012).
Values joined by “and” are separate entries in the source; they are usually repeats but may differ in a detail not shown here. Equal values may be shown once.

Columns and labels:
[1] = system: feline immunodeficiency virus (FIV); experiment: CPDS in an FIV-infected cat (Example 8); assay type: in vivo
Procedure: A cat infected with feline immunodeficiency virus (FIV) was given 140 mg CPDS each morning. The CPDS was mixed with the cat's chow (food). The 140 mg CDPS dosage regimen was continued for 2 weeks. At this time, the cat's overall conditions (thin facial hair, dull eyes, excorations of the skin, appetite, general behavior) improved. After the 2 week timepoint, the dosage regimen was increased to 140 mg CPDS every morning and night (280 mg CPDS daily), mixed in the cat chow. […] The cat's eyes were bright, facial hair was thick, appearance of hair was shiny, and the cat regained its appetite and gained 300 g in weight.

[2] = system: spleen T cells, B cells and NK cells; experiment: Immunophenotyping of splenocytes by flow cytometry; assay type: in vivo, BALB/c mice
Procedure: In general, the immunophenotyping technique consisted briefly of isolating cells from the peripheral blood or an organ (spleen or thymus), labeling them with a panel of antibodies specific for certain antigens of the membrane, and allowing to quantify the different populations. Analysis was performed by flow cytometry since antibodies were conjugated with a fluorochrome (Longbardi, Givan, A., 1994, Flow cytometry. First principles, Wiley-Liss Inc. New York.).
To immunophenotype immune cells, splenocytes were diluted to a concentration of […]. A total of 1×10^6 cells were distributed in a V-shape 96 well plate. A total of 7 wells were necessary for each sample. Plates were centrifuged 5 minutes at 1200 rpm. Supernatant was discarded and pellet were vortexed. Monoclonal antibodies were distributed in each wells according to the following set up:
The antibodies used are commercially available from Becton Dickinson (San Jose, Calif.). The cells were incubated with the antibodies for 30 minutes on ice, washed three times with D-PBS+1% BSA, spun at 1200 rpm for 5 minutes using a multichannel pipette, suspended in 1 ml of paraformaldehyde 2% (v/v), and transferred into flow cytometry tubes. Samples were analyzed using EPICS XL from Beckman Coulter flow cytometer. Results were expressed as percentage of the population expressing the specific surface antigen. Live population of cells were gated upon using forward scatter (FS) vs. side scatter (SS) to distinguish live cells from dead cells. A total of 10,000 gated cells were counted for statistical relevance. The FL1 band pass filter (set at 525 nm) was used to detect fluoroscein isothiocyanate (FITC) fluorescence. The FL2 band pass filter (set at 575 nm) was used to detect phycoerythrin (PE) fluorescence. The cursors are set accordingly to delineate the positive region. This region should be relative to 1% of the unstained control (cell control). Results are expressed as % of positive population expressing the specific surface antigens. Student's T test was performed between the control group and the treated group. The p value was calculated for statistical significance.

[3] = Weight gain of mice on CPDS diet; assay type: in vivo, BALB/c mice
Procedure: To prepare a CPDS diet, a total of 3 kilos of Standard Purina chow was reduced to powder using a grinder. About 12 g of CPDS was added to the powder and thoroughly mixed, re-hydrated and reconstituted into pellets. Pellets were allowed to dry overnight.
Male adult BALB/c mice were weighed and randomly divided to form the experimental groups. Mice were allowed to acclimatized 3 days prior to the beginning of the experiments. Mice from the control normal diet groups were fed ad libitum with standard Purina mouse chow. Mice from the CPDS treated groups were fed ad libitum with the CPDS preparation. The amount of food given was weighted and recorded to allow the evaluation of the CPDS dosage.
The weight gained by each mice was evaluated weekly and prior to sacrifice. Mice were sacrificed by overexposure to CO2. The spleen from each mouse was collected under sterile conditions, transferred into HBSS buffered solution and kept on ice until used for other studies disclosed. Experiments were performed on the same day.

[4] = 30 days on CPDS diet vs group 1
[5] = Group 2, 30 days on CPDS diet, Mean ± S.D.
[6] = Group 2, 30 days on CPDS diet, individual mice
[7] = Group 6, 6 days on CPDS diet, Mean ± S.D.
[8] = Group 6, 6 days on CPDS diet, individual mice
[9] = Group 2 (30 days CPDS diet), group Mean ± S.D.
[10] = Group 2 (30 days CPDS diet), individual mice
[11] = Group 4 (45 days CPDS diet), group Mean ± S.D.
[12] = Group 4 (45 days CPDS diet), individual mice
[13] = Group 6 (6 days CPDS diet), group Mean ± S.D.
[14] = Group 6 (6 days CPDS diet), individual mice

In the case of `O=C(O)c1ccc(SSc2ccc(C(=O)O)cn2)nc1` [CPDS, 6,6′-dithiodinicotinic acid], the “Cat's overall conditions (facial hair, eyes, skin, appetite, general behavior)” value ([1]; FIV-infected cat, 140 mg CPDS each morning in chow for 2 weeks) was “improved”, the “Physical condition, appearance and behavior” value ([1]; FIV-infected cat, 280 mg CPDS daily for a total of 59 days) was “improved physical condition, improved overall physical appearance, and improved behavior” and the “Weight gained by the cat” value ([1]; FIV-infected cat, after 30 days) was 300 g. For the same molecule, the “Cat's overall conditions” value ([1]; FIV-infected cat, after 30 days, 280 mg CPDS daily after week 2) was “overall conditions had improved”, the “Health of the cat at follow-up” value ([1]; after treatment for 100 days and a year and half after treatment) was “appeared entirely healthy” and the “B cells, variation (%)” value ([2]; 6 days on CPDS diet vs Group 5) was −1.0%. For the same molecule, the “CD4+, variation (%)” value ([2]; 6 days on CPDS diet vs Group 5) was −8.5%, the “CD8+, variation (%)” value ([2]; 6 days on CPDS diet vs Group 5) was −6.8% and the “NK cells, variation (%)” value ([2]; 6 days on CPDS diet vs Group 5) was 43.5%. For the same molecule, the “Ratio CD4/CD8, variation (%)” value ([2]; 6 days on CPDS diet vs Group 5) was −1.8%, the “Total T cells, variation (%)” value ([2]; 6 days on CPDS diet vs Group 5) was −8.0% and the “Immunophenotyping: B cells, effect of CPDS diet” value ([2]; 6 days, n=3) was “no significant effect”. For the same molecule, the “Immunophenotyping: Ratio CD4/CD8, effect of CPDS diet” value ([2]; 6 days, n=3) was “No effect”, the “Immunophenotyping: T CD4+, effect of CPDS diet” value ([2]; 6 days, n=3) was “No effect” and the “Immunophenotyping: T CD8+, effect of CPDS diet” value ([2]; 6 days, n=3) was “No effect”. For the same molecule, the “Immunophenotyping: Total T cells, effect of CPDS diet” value ([2]; 6 days, n=3) was “no significant effect”, the “Immunophenotyping: NK cells, effect of CPDS diet” value ([2]; 6 days, n=3, arrow image = increase) was “tendency toward an increase” and the “B cells, variation (%)” value [2, 4] was −19.9%. The “CD4+, variation (%)” value [2, 4] was −3.9%, the “CD8+, variation (%)” value [2, 4] was −11.0% and the “NK cells, variation (%)” value [2, 4] was 69.4%. For the same molecule, the “Ratio CD4/CD8, variation (%)” value [2, 4] was 7.7%, the “Total T cells, variation (%)” value [2, 4] was −1.2% and the “Immunophenotyping: T CD4+, effect of CPDS diet” value ([2]; 30 days, n=8) was “No effect”. The “Immunophenotyping: Total T cells, effect of CPDS diet” value ([2]; 30 days, n=8) was “No effect”, the “Immunophenotyping: T CD8+, effect of CPDS diet” value ([2]; 30 days, n=8, arrow image = decrease) was “tendency to decrease” and the “Immunophenotyping: Ratio CD4/CD8, effect of CPDS diet” value ([2]; 30 days, n=8, arrow image = increase) was “tendency”. For the same molecule, the “B cells (%)” value [2, 5] was 23.4 ± 2.0%, the “CD4+ (%)” value [2, 5] was 23.6 ± 2.3% and the “CD8+ (%)” value [2, 5] was 9.6 ± 1.2%. The “NK cells (%)” value [2, 5] was 6.9 ± 4.9%, the “Ratio CD4/CD8” value [2, 5] was 2.49 ± 0.26 and the “Total T cells (%)” value [2, 5] was 38.4 ± 2.9%. The “B cells (%)” value [2, 6] was 24.0% and 25.9% and 25.0% and 21.5% and 23.8% and 22.3% and 24.8% and 20.1%, the “CD4+ (%)” value [2, 6] was 21.7% (2×) and 24.0% and 28.3% and 25.7% and 23.2% and 22.2% and 22.1% and the “CD8+ (%)” value [2, 6] was 8.5% and 9.58% and 10.2% and 11.5% and 9.66% and 7.92% and 8.54% and 10.5%. For the same molecule, the “NK cells (%)” value [2, 6] was 16.8% and 4.8% (2×) and 11.9% and 3.72% and 2.6% and 5.56% and 4.76%, the “Ratio CD4/CD8” value [2, 6] was 2.55 and 2.27 and 2.35 and 2.46 and 2.66 and 2.93 and 2.60 and 2.1 and the “Total T cells (%)” value [2, 6] was 35.8% and 36.8% and 39.6% and 44.6% and 39.8% and 37.5% and 36.0% and 37.4%. The “B cells (%)” value [2, 7] was 50.3 ± 0.5%, the “CD4+ (%)” value [2, 7] was 25.8 ± 2.3% and the “CD8+ (%)” value [2, 7] was 13.6 ± 0.9%. The “NK cells (%)” value [2, 7] was 11.9 ± 2.7%, the “Ratio CD4/CD8” value [2, 7] was 1.90 ± 0.06 and the “Total T cells (%)” value [2, 7] was 41.4 ± 2.5%. The “B cells (%)” value [2, 8] was 49.8% and 50.7% and 50.3%, the “CD4+ (%)” value [2, 8] was 26.4% and 23.3% and 27.8% and the “CD8+ (%)” value [2, 8] was 14.0% and 12.6% and 14.2%. For the same molecule, the “NK cells (%)” value [2, 8] was 9.7% and 14.1% and 9.1%, the “Ratio CD4/CD8” value [2, 8] was 1.89 and 1.85 and 1.96 and the “Total T cells (%)” value [2, 8] was 42.8% and 38.6% and 42.9%. The “Animal weight, Day 0” value [3, 9] was 14.87 ± 1.18 g, the “Animal weight, Day 6” value [3, 9] was 17.89 ± 1.2 g and the “Animal weight, Day 14” value [3, 9] was 19.36 ± 0.9 g. The “Animal weight, Day 21” value [3, 9] was 20.50 ± 0.9 g, the “Animal weight, Day 28” value [3, 9] was 22.04 ± 1.0 g and the “Animal weight, Day 0” value [3, 10] was 15.87 g and 15.18 g and 12.76 g and 15.67 g and 15.69 g and 15.29 g and 15.25 g and 13.28 g. For the same molecule, the “Animal weight, Day 6” value [3, 10] was 18.64 g and 19.84 g and 15.20 g and 18.31 g and 18.66 g and 18.54 g and 17.98 g and 16.92 g, the “Animal weight, Day 14” value [3, 10] was 19.66 g and 20.46 g and 17.47 g and 19.96 g and 19.78 g and 19.09 g and 19.84 g and 18.65 g and the “Animal weight, Day 21” value [3, 10] was 20.10 g and 21.36 g (2×) and 18.72 g and 21.20 g and 20.58 g and 20.79 g and 19.87 g. For the same molecule, the “Animal weight, Day 28” value [3, 10] was 21.96 g and 22.76 g and 19.99 g and 22.98 g and 22.80 g and 22.31 g and 22.57 g and 20.94 g, the “Animal weight, Day 0” value [3, 11] was 14.57 ± 0.8 g and the “Animal weight, Day 6” value [3, 11] was 17.74 ± 1.0 g. For the same molecule, the “Animal weight, Day 14” value [3, 11] was 18.92 ± 1.1 g, the “Animal weight, Day 21” value [3, 11] was 19.86 ± 1.1 g and the “Animal weight, Day 28” value [3, 11] was 21.60 ± 1.2 g. For the same molecule, the “Animal weight, Day 35” value [3, 11] was 22.19 ± 1.1 g, the “Animal weight, Day 45” value [3, 11] was 22.78 ± 1.1 g and the “Animal weight, Day 0” value [3, 12] was 13.58 g and 16.07 g and 14.28 g and 13.75 g and 14.89 g and 15.10 g and 13.67 g and 15.20 g. The “Animal weight, Day 6” value [3, 12] was 17.25 g and 18.57 g and 17.03 g and 16.46 g and 17.79 g and 18.38 g and 16.98 g and 19.46 g, the “Animal weight, Day 14” value [3, 12] was 18.57 g (2×) and 20.58 g and 18.25 g and 17.66 g and 18.83 g and 18.02 g and 20.86 g and the “Animal weight, Day 21” value [3, 12] was 19.72 g and 21.59 g and 19.22 g and 18.38 g and 19.40 g and 19.35 g and 19.45 g and 21.74 g. For the same molecule, the “Animal weight, Day 28” value [3, 12] was 21.40 g (2×) and 23.72 g and 20.35 g and 20.18 g and 21.41 g and 21.14 g and 23.19 g, the “Animal weight, Day 35” value [3, 12] was 21.82 g and 24.00 g and 20.91 g and 20.95 g and 22.47 g and 21.39 g and 22.28 g and 23.68 g and the “Animal weight, Day 45” value [3, 12] was 22.71 g and 24.66 g and 20.96 g and 21.78 g and 23.15 g and 22.10 g and 23.09 g and 23.80 g. For the same molecule, the “Animal weight, Day 0” value [3, 13] was 15.15 ± 1.1 g, the “Animal weight, Day 6” value [3, 13] was 18.40 ± 0.7 g and the “Animal weight, Day 0” value [3, 14] was 13.90 g and 16.04 g and 15.50 g. The “Animal weight, Day 6” value [3, 14] was 17.60 g and 19.18 g and 18.43 g, the “Course of animal weight (in words)” value ([3]; group fed CPDS diet for 45 days, food intake constant) was “stabilized after day 35” and the “Weight gain vs group on normal Purina chow (in words)” value ([3]; group fed CPDS for 45 days, p=0.01432) was “statistically significant lower weight gain”. The “Weight gain (in words)” value ([3]; groups fed CPDS diet for 6 and 30 days) was “constant and normal”.
